What is called IC50 is the concentration needed to halve the response being measured. Low values mean inhibition by little substance, high ones a need for much substance.

Assay [1] relates to VCaP cells. Kind of assay: VCaP growth inhibition assay (CTG). Format: cell-based. To be noted: 30 pM R1881, 9 days. The protocol: VCaP cells (ATCC Cat #CRL-2876) are plated at 1×10^4 cells per well of a white plastic 96-well cluster plate (Thermo Scientific Nunc Cat #165306) in 100 uL phenol red-free DMEM (Gibco Cat #21063-029) media with 5% CSS (Omega Scientific Cat #FB-04). Cluster plates are returned to the incubator (37*C/5% CO2) for 72 hours prior to treatment. Just prior to treatment, 100 uL of phenol red-free DMEM/5% CSS and 60 pM R1881 (Sigma Cat #R0908-10 mg) was added to each well of the cluster plates (Final R1881 concentration=30 pM). Compounds (200X) were added to each well in a volume of 1 uL, with serial dilutions (1:5) from 20 uM to 2 pM (final concentrations in well are 100 nM to 10 fM). Cluster plates are returned to the incubator for 9 days.
After the 9-day treatment period, media was removed from the cluster plates by inversion and 100 uL room temperature CTG reagent (Promega Cat #G7573) is added to each well. The cluster plates are placed on a shaker and incubated at room temperature for 20 minutes. Following this shaking/incubation, cluster plates are read on a luminometer (BMG ClarioStar). IC50 values are obtained by graphing the RLU data vs. compound concentration with nonlinear regression 4-parameter logistic curves (GraphPad Prism).

Assay [2] has as its target AR / CBP ternary complex (Homo sapiens, UniProt P10275+Q92793). Kind of assay: Ternary complex formation assay (sandwich ELISA, AR capture, CBP antibody detection) in VCaP cell lysates. Format: cell-based. Conditions: treated 1.5 hours, rabbit CBP or p300 antibody detection, average, read-out: Average Ternary Complex. A digest of the protocol:
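Sandwich ELISA: plates were coated with anti-AR antibody (AR441) and given lysates of VCaP cells treated 1.5 h with bifunctional compound in charcoal-stripped serum. Co-captured CBP or p300 was probed with rabbit mAbs and HRP secondary. Chemifluorescent signal (ex 570/em 585) was read at 0, 5 and 15 min.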
For orientation: ELISA stands for enzyme-linked immunosorbent assay.

Sequence of AR / CBP ternary complex (P10275 whole entry): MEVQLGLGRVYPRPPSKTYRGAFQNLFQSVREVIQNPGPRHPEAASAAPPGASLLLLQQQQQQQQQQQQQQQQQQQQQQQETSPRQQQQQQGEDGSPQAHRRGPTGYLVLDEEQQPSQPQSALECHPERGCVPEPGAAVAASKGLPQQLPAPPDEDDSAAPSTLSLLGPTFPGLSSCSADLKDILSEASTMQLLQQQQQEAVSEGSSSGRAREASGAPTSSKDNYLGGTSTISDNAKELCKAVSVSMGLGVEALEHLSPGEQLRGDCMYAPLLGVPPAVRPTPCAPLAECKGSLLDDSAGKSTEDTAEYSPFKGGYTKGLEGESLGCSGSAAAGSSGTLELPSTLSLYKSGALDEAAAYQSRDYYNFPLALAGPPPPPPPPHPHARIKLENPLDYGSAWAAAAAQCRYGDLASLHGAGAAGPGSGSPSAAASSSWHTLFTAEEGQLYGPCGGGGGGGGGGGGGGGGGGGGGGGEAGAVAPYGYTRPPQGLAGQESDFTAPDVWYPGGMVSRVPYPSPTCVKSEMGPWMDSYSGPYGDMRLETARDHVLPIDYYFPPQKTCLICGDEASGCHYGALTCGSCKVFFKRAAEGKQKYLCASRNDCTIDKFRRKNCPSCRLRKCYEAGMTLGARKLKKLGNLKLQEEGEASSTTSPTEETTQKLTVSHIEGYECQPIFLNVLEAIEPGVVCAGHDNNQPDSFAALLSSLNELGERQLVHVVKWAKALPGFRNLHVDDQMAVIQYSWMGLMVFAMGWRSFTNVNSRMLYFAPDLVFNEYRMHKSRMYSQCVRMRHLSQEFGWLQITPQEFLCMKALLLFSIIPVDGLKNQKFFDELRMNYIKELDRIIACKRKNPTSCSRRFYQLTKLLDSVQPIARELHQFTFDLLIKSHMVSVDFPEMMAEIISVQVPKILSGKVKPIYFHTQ
Sequence of AR / CBP ternary complex (Q92793 2-2442): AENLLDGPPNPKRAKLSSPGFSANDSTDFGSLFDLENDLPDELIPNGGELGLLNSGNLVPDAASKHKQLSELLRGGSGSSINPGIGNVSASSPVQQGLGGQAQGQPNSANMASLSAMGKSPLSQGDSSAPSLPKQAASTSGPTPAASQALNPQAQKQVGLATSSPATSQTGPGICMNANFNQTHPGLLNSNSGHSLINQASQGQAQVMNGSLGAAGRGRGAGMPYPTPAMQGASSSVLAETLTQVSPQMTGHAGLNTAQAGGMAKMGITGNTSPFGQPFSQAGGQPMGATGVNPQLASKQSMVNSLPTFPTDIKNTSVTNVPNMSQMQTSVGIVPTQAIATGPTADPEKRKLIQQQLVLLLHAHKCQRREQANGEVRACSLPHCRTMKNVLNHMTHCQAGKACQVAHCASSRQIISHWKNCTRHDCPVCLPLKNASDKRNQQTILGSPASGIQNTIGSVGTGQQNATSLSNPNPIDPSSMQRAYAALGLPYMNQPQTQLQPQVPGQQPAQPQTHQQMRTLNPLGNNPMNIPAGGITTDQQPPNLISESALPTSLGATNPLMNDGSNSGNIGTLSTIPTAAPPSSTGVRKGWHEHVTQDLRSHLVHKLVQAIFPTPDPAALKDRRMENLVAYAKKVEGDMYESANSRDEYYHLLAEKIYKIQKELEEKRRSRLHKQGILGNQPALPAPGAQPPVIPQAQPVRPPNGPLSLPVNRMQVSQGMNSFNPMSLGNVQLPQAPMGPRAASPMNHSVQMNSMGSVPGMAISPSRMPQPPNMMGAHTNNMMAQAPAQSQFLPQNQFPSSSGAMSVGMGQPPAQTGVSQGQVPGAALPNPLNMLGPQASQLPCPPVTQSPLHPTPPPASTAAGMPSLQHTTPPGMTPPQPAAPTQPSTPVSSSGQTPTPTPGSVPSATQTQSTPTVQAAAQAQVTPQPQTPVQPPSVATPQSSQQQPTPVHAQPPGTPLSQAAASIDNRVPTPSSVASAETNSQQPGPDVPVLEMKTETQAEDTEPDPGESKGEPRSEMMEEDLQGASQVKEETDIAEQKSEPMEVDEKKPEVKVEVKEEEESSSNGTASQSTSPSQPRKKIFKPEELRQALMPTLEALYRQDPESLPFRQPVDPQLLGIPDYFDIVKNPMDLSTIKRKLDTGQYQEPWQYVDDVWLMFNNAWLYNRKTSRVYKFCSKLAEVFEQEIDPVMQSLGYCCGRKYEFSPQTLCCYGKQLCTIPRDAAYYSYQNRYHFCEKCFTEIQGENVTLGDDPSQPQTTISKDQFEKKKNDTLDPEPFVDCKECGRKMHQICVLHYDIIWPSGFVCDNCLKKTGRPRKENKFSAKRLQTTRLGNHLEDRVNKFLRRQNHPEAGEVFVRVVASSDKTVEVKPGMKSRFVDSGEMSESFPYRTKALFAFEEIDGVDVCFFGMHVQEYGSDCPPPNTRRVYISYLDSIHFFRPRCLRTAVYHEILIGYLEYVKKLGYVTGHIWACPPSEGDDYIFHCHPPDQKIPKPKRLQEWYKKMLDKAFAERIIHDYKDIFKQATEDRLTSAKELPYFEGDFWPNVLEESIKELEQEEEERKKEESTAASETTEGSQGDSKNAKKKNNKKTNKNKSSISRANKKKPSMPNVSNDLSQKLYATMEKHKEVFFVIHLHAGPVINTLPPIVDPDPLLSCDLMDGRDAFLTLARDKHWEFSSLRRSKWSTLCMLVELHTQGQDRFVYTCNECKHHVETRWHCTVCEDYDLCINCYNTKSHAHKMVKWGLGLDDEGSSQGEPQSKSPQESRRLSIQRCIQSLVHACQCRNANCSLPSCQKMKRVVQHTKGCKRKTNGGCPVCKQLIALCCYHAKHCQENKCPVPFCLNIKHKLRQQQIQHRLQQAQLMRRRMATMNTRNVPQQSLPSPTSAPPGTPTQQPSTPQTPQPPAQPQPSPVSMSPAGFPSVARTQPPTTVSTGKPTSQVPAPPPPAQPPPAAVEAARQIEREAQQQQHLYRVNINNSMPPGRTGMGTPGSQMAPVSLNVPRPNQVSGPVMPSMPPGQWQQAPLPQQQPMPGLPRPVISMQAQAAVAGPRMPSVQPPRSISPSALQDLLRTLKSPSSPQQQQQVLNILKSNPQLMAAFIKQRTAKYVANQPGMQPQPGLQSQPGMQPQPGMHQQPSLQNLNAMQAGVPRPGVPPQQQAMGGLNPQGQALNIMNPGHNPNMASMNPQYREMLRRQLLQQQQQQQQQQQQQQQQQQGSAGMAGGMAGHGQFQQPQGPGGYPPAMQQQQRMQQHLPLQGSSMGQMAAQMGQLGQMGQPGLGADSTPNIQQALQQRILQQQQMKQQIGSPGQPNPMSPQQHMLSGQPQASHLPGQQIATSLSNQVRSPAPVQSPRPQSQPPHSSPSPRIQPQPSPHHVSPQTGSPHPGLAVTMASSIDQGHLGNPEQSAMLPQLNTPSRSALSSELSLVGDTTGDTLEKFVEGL

The compound `COc1cc(O[C@H]2CC[C@H](NC(=O)c3ccc(N4CCC(C(=O)N5CCC(n6nc(N7CCCc8cc(-c9cnn(C)c9)c(C(F)F)cc87)c7c6CCN(C(C)=O)C7)CC5)CC4)cc3)CC2)ccc1C#N` [Compound 160, 4-[4-[4-[5-acetyl-3-[7-(difluoromethyl)-6-(1-methylpyrazol-4-yl)-3,4-dihydro-2H-quinolin-1-yl]-6,7-dihydro-4H-pyrazolo[4,3-c]pyridin-1-yl]piperidine-1-carbonyl]-1-piperidyl]-N-[4-(4-cyano-3-methoxy-phenoxy)cyclohexyl]benzamide] gave an IC50 in assay [1] (Homo sapiens, 216 h) not above 0.1 nM. The EC50 in assay [2] is less than 1 nM.
On the same counts, the results for `CC(=O)N1CCc2c(c(N3CCCc4cc(C5CC5)ncc43)nn2C2CCN(CC3CCN(c4ccc(C(=O)N[C@H]5CC[C@H](Oc6ccc(C#N)c(Cl)c6)CC5)nn4)CC3)CC2)C1` [Compound 108, 6-[4-[[4-[5-acetyl-3-(6-cyclopropyl-3,4-dihydro-2H-1,7-naphthyridin-1-yl)-6,7-dihydro-4H-pyrazolo[4,3-c]pyridin-1-yl]-1-piperidyl]methyl]-1-piperidyl]-N-[4-(3-chloro-4-cyano-phenoxy)cyclohexyl]pyridazine-3-carboxamide] are 0.1 to 1 nM and 1 to 10 nM.
On the same counts, the results for `Cn1cc(-c2cc3cccc(-c4cc(C5=CCN(CC6CCN(c7ccc(C(=O)N[C@H]8CC[C@H](Oc9ccc(C#N)c(Cl)c9)CC8)nn7)CC6)CC5)c5c(c4)n(C)c(=O)n5C)c3cn2)cn1` [Compound 147, N-[4-(3-chloro-4-cyano-phenoxy)cyclohexyl]-6-[4-[[4-[1,3-dimethyl-6-[3-(1-methylpyrazol-4-yl)-8-isoquinolyl]-2-oxo-benzimidazol-4-yl]-3,6-dihydro-2H-pyridin-1-yl]methyl]-1-piperidyl]pyridazine-3-carboxamide] are 0.1 to 1 nM and less than 1 nM.
For `CC(=O)N1CCc2c(c(-c3cccc4cc(-c5ccc(COCC6CCN(c7ccc(C(=O)N[C@H]8CC[C@H](Oc9ccc(C#N)c(Cl)c9)CC8)nn7)CC6)nc5)ncc34)nn2C)C1` [Compound 21, 6-[4-[[5-[8-(5-acetyl-1-methyl-6,7-dihydro-4H-pyrazolo[4,3-c]pyridin-3-yl)-3-isoquinolyl]-2-pyridyl]methoxymethyl]-1-piperidyl]-N-[4-(3-chloro-4-cyano-phenoxy)cyclohexyl]pyridazine-3-carboxamide], the IC50 in assay [1] (Homo sapiens, 216 h) is not above 0.1 nM. In assay [2], the EC50 is less than 1 nM.
Turning to `CC(=O)N1CCc2c(c(-c3cccc4cc(-c5ccc(CC6CCN(c7ccc(C(=O)N[C@H]8CC[C@H](Oc9ccc(C#N)c(Cl)c9)CC8)nn7)CC6)nc5)ncc34)nn2C)C1` [Compound 19, 6-[4-[[5-[8-(5-acetyl-1-methyl-6,7-dihydro-4H-pyrazolo[4,3-c]pyridin-3-yl)-3-isoquinolyl]-2-pyridyl]methyl]-1-piperidyl]-N-[4-(3-chloro-4-cyano-phenoxy)cyclohexyl]pyridazine-3-carboxamide], in assay [1] (Homo sapiens, 216 h), the IC50 is not above 0.1 nM. Also, the EC50 in assay [2] is more than 100 nM.
On the same counts, the results for `CC(=O)N1CCc2c(c(N3CCCc4cc(-c5ncco5)c(C(F)F)cc43)nn2C2CCN(CC3CCN(c4ccc(C(=O)N[C@H]5CC[C@H](Oc6ccc(C#N)c(Cl)c6)CC5)nn4)CC3)CC2)C1` [Compound 256, 6-[4-[[4-[5-acetyl-3-[7-(difluoromethyl)-6-oxazol-2-yl-3,4-dihydro-2H-quinolin-1-yl]-6,7-dihydro-4H-pyrazolo[4,3-c]pyridin-1-yl]-1-piperidyl]methyl]-1-piperidyl]-N-[4-(3-chloro-4-cyano-phenoxy)cyclohexyl] pyridazine-3-carboxamide] are 0.1 to 1 nM and less than 1 nM.
Turning to `CC(=O)N1CCc2c(c(N3CCCc4cc(-c5cnn(C)c5)c(C(F)F)cc43)nn2C2CCN(C[C@H]3CCN(c4ccc(C(=O)N[C@H]5CC[C@H](Oc6ccc(C#N)c(Cl)c6)CC5)nn4)C[C@H]3C)CC2)C1` (stereo in doubt) [Compound 101, 6-[4-[[4-[5-acetyl-3-[7-(difluoromethyl)-6-(1-methylpyrazol-4-yl)-3,4-dihydro-2H-quinolin-1-yl]-6,7-dihydro-4H-pyrazolo[4,3-c]pyridin-1-yl]-1-piperidyl]methyl]-3-methyl-1-piperidyl]-N-[4-(3-chloro-4-cyano-phenoxy)cyclohexyl]pyridazine-3-carboxamide], in assay [1], the concentration for half-maximal inhibition (IC50) is not above 0.1 nM. Besides, in assay [2], the EC50 is less than 1 nM.
In turn, `COc1cc(O[C@H]2CC[C@H](NC(=O)c3ccc(N4CCC(CN5CCC(n6nc(-c7cccc8cc(-c9cnn(C)c9)ncc78)c7c6CCN(C(C)=O)C7)CC5)CC4)cc3)CC2)ccc1C#N` [Compound 163, 4-[4-[[4-[5-acetyl-3-[3-(1-methylpyrazol-4-yl)-8-isoquinolyl]-6,7-dihydro-4H-pyrazolo[4,3-c]pyridin-1-yl]-1-piperidyl]methyl]-1-piperidyl]-N-[4-(4-cyano-3-methoxy-phenoxy)cyclohexyl]benzamide] came in with a half-inhibitory concentration (IC50) in assay [1] (Homo sapiens, 216 h) not above 0.1 nM. In addition, the EC50 in assay [2] was less than 1 nM.
On the same counts, the results for `CC(=O)N1CCc2c(c(N3CCCc4cc(-c5cnn(C)c5)c(C(F)F)cc43)nn2C2CCN(C3CCC4(CC3)CC(Oc3ccc(C(=O)N[C@H]5CC[C@H](Oc6ccc(C#N)c(Cl)c6)CC5)nn3)C4)CC2)C1` (stereo partly shown) [Compound 245, 6-[7-[4-[5-acetyl-3-[7-(difluoromethyl)-6-(1-methylpyrazol-4-yl)-3,4-dihydro-2H-quinolin-1-yl]-6,7-dihydro-4H-pyrazolo[4,3-c]pyridin-1-yl]-1-piperidyl]spiro[3.5]nonan-2-yl]oxy-N-[4-(3-chloro-4-cyano-phenoxy)cyclohexyl]pyridazine-3-carboxamide] are not above 0.1 nM and less than 1 nM.
In assay [1] (Homo sapiens, 216 h), `Cc1cc2c(N3CCN(C)c4cc(C5CC5)ncc43)cc(N3CCN(CC4CCN(c5ccc(C(=O)N[C@H]6CC[C@H](Oc7ccc(C#N)c(Cl)c7)CC6)nn5)CC4)CC3)cc2n(C)c1=O` [Compound 138, N-[4-(3-chloro-4-cyano-phenoxy)cyclohexyl]-6-[4-[[4-[5-(7-cyclopropyl-1-methyl-2,3-dihydropyrido[3,4-b]pyrazin-4-yl)-1,3-dimethyl-2-oxo-7-quinolyl]piperazin-1-yl]methyl]-1-piperidyl]pyridazine-3-carboxamide] returned an IC50 of 1 to 100 nM. For the same compound, the EC50 in assay [2] was in the range of 1 to 10 nM.
`COC(=O)N1c2ccc3c(nc(Cc4ccccc4)n3[C@@H]3CCC[C@H](OC4CCN(c5ccc(C(=O)N[C@H]6CC[C@H](Oc7ccc(C#N)c(Cl)c7)CC6)nn5)CC4)C3)c2CC[C@@H]1C` [Compound 244, methyl (7S)-2-benzyl-3-[3-[[1-[6-[[4-(3-chloro-4-cyano-phenoxy)cyclohexyl]carbamoyl]pyridazin-3-yl]-4-piperidyl]oxy]cyclohexyl]-7-methyl-8,9-dihydro-7H-imidazo[4,5-f]quinoline-6-carboxylate] had an IC50 in assay [1] (Homo sapiens, 216 h) of 0.1 to 1 nM. Further, the EC50 in assay [2] is less than 1 nM.
`CC(=O)N1CCc2c(c(N3CCCc4cc(-c5cnn(C)c5)c(C(F)F)cc43)nn2C2CCN([C@@H]3CCN(c4ccc(C(=O)N[C@H]5CC[C@H](Oc6ccc(C#N)c(Cl)c6)CC5)nn4)C3)CC2)C1` [Compound 222, 6-[(3R)-3-[4-[5-acetyl-3-[7-(difluoromethyl)-6-(1-methylpyrazol-4-yl)-3,4-dihydro-2H-quinolin-1-yl]-6,7-dihydro-4H-pyrazolo[4,3-c]pyridin-1-yl]-1-piperidyl]pyrrolidin-1-yl]-N-[4-(3-chloro-4-cyano-phenoxy)cyclohexyl] pyridazine-3-carboxamide] registered an IC50 in assay [1] (Homo sapiens, 216 h) of 0.1 to 1 nM. Moreover, the EC50 in assay [2] is less than 1 nM.
On the same counts, the results for `CC(=O)N1CCc2c(c(-c3cccc4cc(-c5cnn(CCOC6CC7(C6)CN(c6ccc(C(=O)N[C@H]8CC[C@H](Oc9ccc(C#N)c(Cl)c9)CC8)nn6)C7)c5)ncc34)nn2C)C1` [Compound 64, 6-[6-[2-[4-[8-(5-acetyl-1-methyl-6,7-dihydro-4H-pyrazolo[4,3-c]pyridin-3-yl)-3-isoquinolyl]pyrazol-1-yl]ethoxy]-2-azaspiro[3.3]heptan-2-yl]-N-[4-(3-chloro-4-cyano-phenoxy)cyclohexyl]pyridazine-3-carboxamide] are 0.1 to 1 nM and 1 to 10 nM.
On the same counts, the results for `CC(=O)N1CCc2c(c(N3CCCc4cc(-c5cnn(C)c5)c(C(F)F)cc43)nn2[C@@H]2CCN(CC3CCN(c4ccc(C(=O)N[C@H]5CC[C@H](Oc6ccc(C#N)c(Cl)c6)CC5)nn4)CC3)C[C@@H]2F)C1` [Compound 144, 6-[4-[[(3S,4R)-4-[5-acetyl-3-[7-(difluoromethyl)-6-(1-methylpyrazol-4-yl)-3,4-dihydro-2H-quinolin-1-yl]-6,7-dihydro-4H-pyrazolo[4,3-c]pyridin-1-yl]-3-fluoro-1-piperidyl]methyl]-1-piperidyl]-N-[4-(3-chloro-4-cyano-phenoxy)cyclohexyl] pyridazine-3-carboxamide] are not above 0.1 nM and less than 1 nM.

(Values after patent publication US20250136578A1 (Kolm Therapeutics Inc., priority 2023, published 2025).)
